ChEMBL document CHEMBL4340557, “Fasudil dichloroacetate (FDCA), an orally available agent with potent therapeutic efficiency on monocrotaline-induced pulmonary arterial hypertension rats” (Bioorg Med Chem Lett, 2019)

Experiments:
[1] = tested on: Rattus norvegicus; assay: (§1) Anti-hypersensitive activity in MCT-induced pulmonary arterial hypertension Sprague-Dawley rat model assessed as mean pulmonary artery pressure at 15.5 mg/kg, po administered daily for 14 days starting from 14 days post-MCT challenge and measured post-last dose by pressure transducer-coupled polygraphy (reference value: 36 +/- 2.83 mmHg); type: functional
[2] = tested on: Rattus norvegicus; assay: as §1, with “right ventricular systolic” for “mean pulmonary artery”, “59.06” for “36”, “3.26” for “2.83”; type: functional
[3] = tested on: Rattus norvegicus; assay: as §1, with “right ventricular hypertrophy index” for “mean pulmonary artery pressure”, “[…]” for “36”, “[…]” for “2.83”; type: functional
[4] = tested on: Rattus norvegicus; assay: (§2) Anti-hypersensitive activity in MCT-induced pulmonary arterial hypertension Sprague-Dawley rat model assessed as pulmonary artery medial thickness at 15.5 mg/kg, po administered daily for 14 days starting from 14 days post-MCT challenge and measured post-last dose by hematoxylin and eosin staining-based microscopic analysis (reference value: […] +/- […]); type: functional
[5] = tested on: Rattus norvegicus; assay: (§3) Anti-hypersensitive activity in MCT-induced pulmonary arterial hypertension Sprague-Dawley rat model assessed as lung fibrosis at 15.5 mg/kg, po administered daily for 14 days starting from 14 days post-MCT challenge and measured post-last dose by Masson's trichrome staining-based microscopic analysis (reference value: 6.12 +/- 1.66%); type: functional
[6] = tested on: Rattus norvegicus; assay: Hemodynamic activity in Sprague-Dawley rat assessed as effect on mean systemic arterial pressure at 15.5 mg/kg, po administered daily for 2 weeks by pressure transducer-coupled polygraphy; type: ADME, organism-based; details: in vivo, 336 h
[7] = tested on: Rattus norvegicus; assay: (§4) Anti-hypersensitive activity in MCT-induced pulmonary arterial hypertension Sprague-Dawley rat model assessed as reduction in cardiomyocyte hypertrophy by measuring cross-sectional area of cardiomyocyte at 15.5 mg/kg, po administered daily for 14 days starting from 14 days post-MCT challenge and measured post-last dose by hematoxylin and eosin staining-based microscopic analysis (reference value: 418 +/- 50.88 micrometer2); type: functional
[8] = tested on: Rattus norvegicus; assay: as §3, with “reduction in cardiomyocyte hypertrophy by measuring cardiac” for “lung”, “11.74” for “6.12”, “3.24 %)” for “1.66%)”; type: functional; parameters: scale not given: the % may be the effect or the level left
[9] = tested on: Rattus norvegicus; assay: as §1, with “43.3” for “15.5”; type: functional
[10] = tested on: Rattus norvegicus; assay: as §1, with “right ventricular systolic” for “mean pulmonary artery”, “43.3” for “15.5”, “59.06” for “36”, “3.26” for “2.83”; type: functional
[11] = tested on: Rattus norvegicus; assay: as §2, with “43.3” for “15.5”; type: functional
[12] = tested on: Rattus norvegicus; assay: as §3, with “43.3” for “15.5”; type: functional
[13] = Plasma concentration in Sprague-Dawley rat assessed as fasudil level at 14.4 mg/kg, po measured at 0.25 hrs by LC-MS/MS analysis; type: ADME, organism-based; details: in vivo
[14] = Plasma concentration in Sprague-Dawley rat assessed as fasudil level at 14.4 mg/kg, po measured at 0.5 hrs by LC-MS/MS analysis; type: ADME, organism-based; details: in vivo
[15] = Plasma concentration in Sprague-Dawley rat assessed as fasudil level at 14.4 mg/kg, po measured at 1 hr by LC-MS/MS analysis; type: ADME, organism-based; details: in vivo
[16] = Plasma concentration in Sprague-Dawley rat assessed as fasudil level at 14.4 mg/kg, po measured at 2 hrs by LC-MS/MS analysis; type: ADME, organism-based; details: in vivo
[17] = Plasma concentration in Sprague-Dawley rat assessed as fasudil level at 14.4 mg/kg, po measured at 4 hrs by LC-MS/MS analysis; type: ADME, organism-based; details: in vivo
[18] = Elimination rate constant in Sprague-Dawley rat at 14.4 mg/kg, po by LC-MS/MS analysis; type: ADME, organism-based; details: in vivo
[19] = Tmax in Sprague-Dawley rat at 14.4 mg/kg, po by LC-MS/MS analysis; type: ADME, organism-based; details: in vivo
[20] = Cmax in Sprague-Dawley rat at 14.4 mg/kg, po by LC-MS/MS analysis; type: ADME, organism-based; parameters: dose 14.4 mg/kg, route oral; details: in vivo
[21] = AUC (0 to t) in Sprague-Dawley rat at 14.4 mg/kg, po by LC-MS/MS analysis; type: ADME, organism-based; details: in vivo
[22] = AUC (0 to infinity) in Sprague-Dawley rat at 14.4 mg/kg, po by LC-MS/MS analysis; type: ADME, organism-based; parameters: dose 14.4 mg/kg, time infinity, route oral; details: in vivo
[23] = AUMC (0 to t) in Sprague-Dawley rat at 14.4 mg/kg, po by LC-MS/MS analysis; type: ADME, organism-based; details: in vivo
[24] = AUMC (0 to infinity) in Sprague-Dawley rat at 14.4 mg/kg, po by LC-MS/MS analysis; type: ADME, organism-based; details: in vivo
[25] = MRT in Sprague-Dawley rat at 14.4 mg/kg, po by LC-MS/MS analysis; type: ADME, organism-based; details: in vivo
[26] = tested on: Rattus norvegicus; assay: Hemodynamic activity in Sprague-Dawley rat assessed as effect on right ventricular systolic pressure at 43.3 mg/kg, po administered daily for 2 weeks by pressure transducer-coupled polygraphy; type: ADME, organism-based; details: in vivo, 336 h
[27] = tested on: Rattus norvegicus; assay: Hemodynamic activity in Sprague-Dawley rat assessed as effect on right ventricular hypertrophy index at 43.3 mg/kg, po administered daily for 2 weeks by pressure transducer-coupled polygraphy; type: ADME, organism-based; details: in vivo, 336 h
[28] = tested on: Rattus norvegicus; assay: Hemodynamic activity in Sprague-Dawley rat assessed as effect on mean pulmonary artery pressure at 43.3 mg/kg, po administered daily for 2 weeks by pressure transducer-coupled polygraphy; type: ADME, organism-based; details: in vivo, 336 h
[29] = tested on: Rattus norvegicus; assay: Hemodynamic activity in Sprague-Dawley rat assessed as effect on mean systemic arterial pressure at 43.3 mg/kg, po administered daily for 2 weeks by pressure transducer-coupled polygraphy; type: ADME, organism-based; details: in vivo, 336 h
[30] = tested on: Rattus norvegicus; assay: as §4, with “43.3” for “15.5”; type: functional
[31] = tested on: Rattus norvegicus; assay: as §3, with “reduction in cardiomyocyte hypertrophy by measuring cardiac” for “lung”, “43.3” for “15.5”, “11.74” for “6.12”, “3.24 %)” for “1.66%)”; type: functional; parameters: scale not given: the % may be the effect or the level left
[32] = Cardiotoxicity in Sprague-Dawley rat assessed as effect on cross-sectional area of cardiomyocyte at 43.3 mg/kg, po administered daily for 2 weeks by hematoxylin and eosin staining-based microscopic analysis (reference value: 209.53 +/- 26.44 micrometer2); type: toxicity, organism-based; details: in vivo, 336 h
[33] = Cardiotoxicity in Sprague-Dawley rat assessed as cardiac fibrosis at 43.3 mg/kg, po administered daily for 2 weeks by hematoxylin and eosin staining-based microscopic analysis (reference value: 2.99 +/- 1.34 %); type: toxicity, organism-based; details: in vivo, 336 h

**Q.** Which results are given for O=C([O-])C(Cl)Cl.[Na+] [SODIUM DICHLOROACETATE]?
**A.** Activity [1]: 34 mmHg; Activity [2]: 57.4 mmHg; Activity_index [3]: 0.564; Activity [4]: 0.3; Activity [5]: 12.45%; Activity [6]: Non-Toxic; Activity [7]: 387.53 um2; Activity [8]: 8.47%

**Q.** Which Activity [9] does the source give for O=C(O)C(Cl)Cl.O=S(=O)(c1cccc2cnccc12)N1CCCNCC1 here?
**A.** The Activity was 25.67 mmHg.

**Q.** What about the Activity [10] of the same compound?
**A.** Its Activity is 49.54 mmHg.

**Q.** And the Activity [11]?
**A.** Its Activity is 0.2.

**Q.** And the Activity [12]?
**A.** Its Activity is 6.12%.

**Q.** What about the Cp [13] of the same compound?
**A.** The Cp was 113 ng/mL.

**Q.** What about the Cp [14] of the same compound?
**A.** Its Cp is 55.5 ng/mL.

**Q.** And the Cp [15]?
**A.** The Cp was 38 ng/mL.

**Q.** And the Cp [16]?
**A.** Its Cp is 18.4 ng/mL.

**Q.** What about the Cp [17] of the same compound?
**A.** The Cp was 4.46 ng/mL.

**Q.** What about the k el [18] of the same compound?
**A.** Its k el is 0.000219 s⁻¹.

**Q.** What about the Tmax [19] of the same compound?
**A.** The Tmax was 15 min.

**Q.** What about the Cmax [20] of the same compound?
**A.** The Cmax was 113 ng/mL.

**Q.** And the AUC(0-t) [21]?
**A.** The AUC(0-t) was 109 ng·h/mL.

**Q.** And the AUC(0-inf) [22]?
**A.** Its AUC(0-inf) is 117 ng·h/mL.

**Q.** What about the AUMCt [23] of the same compound?
**A.** The AUMCt was 119 hr.hr.ng/ml.

**Q.** What about the AUMC [24] of the same compound?
**A.** The AUMC was 160 hr.hr.ng/ml.

**Q.** And the MRT [25]?
**A.** The MRT was 1.29 h.

**Q.** What about the Activity [26] of the same compound?
**A.** Its Activity is “Non-Toxic”.

**Q.** What about the Activity [27] of the same compound?
**A.** The Activity was “Non-Toxic”.

**Q.** What about the Activity [28] of the same compound?
**A.** Its Activity is “Non-Toxic”.

**Q.** What about the Activity [29] of the same compound?
**A.** The Activity was “Non-Toxic”.

**Q.** And the Activity [30]?
**A.** Its Activity is 282.4 um2.

**Q.** And the Activity [31]?
**A.** Its Activity is 3.69%.

**Q.** What about the Activity [32] of the same compound?
**A.** The Activity was 190.6 um2.

**Q.** And the Activity [33]?
**A.** The Activity was 2.25%.
